The test has as its target human Plasma Kallikrein (KLKB1) (Homo sapiens (Human), UniProt P03952). As to the kind of experiment: Inhibition of KLKB1 endpoint assay. It is filed as biochemical. Particulars: fluorogenic substrate H-Pro-Phe-Arg-AMC, 1 hr at Room Temperature, read-out: IC50 measurements for the inhibition of human Plasma Kallikrein (KLKB1). The method, then: The ability of compounds of Formula I to inhibit plasma kallikrein (KLKB1), Factor XIIa (FXIIa), Factor XIa (FXIa), Factor Xa (FXa), Factor IIa (alpha-thrombin; FIIa), plasmin, trypsin, tissue kallikrein 1 (KLK1), Factor VIIa (FVIIa), or FVIIa complexed with Tissue Factor, phospholipids and CaCl2 (FVIIa/TF/PL/CaCl2) was determined using the following biochemical assays in assay buffer (100 mM Tris, 150 mM NaCL, adjusted to a pH of 7.8 with HCl, and containing 0.1% (w/v) BSA and 0.05% (v/v) Tween20) in the presence of 1% (v/v) DMSO:
Evaluation of the Inhibition of KLKB1 Using an Endpoint Assay
Subsequently, PPACK II (Calbiochem) was added as a stop solution to achieve a final concentration of 1 μM and fluorescence was measured using an Envision Reader (PerkinElmer) with the wavelength excitation setting of 355 nm and the wavelength emission setting of 460 nm.
The IC50 values were obtained with the aid of the inhibition of KLKB1 endpoint assay described above.

IC50 data for 15 compounds are collected here from patent US10640486B2, “Heteroarylcarboxamide derivatives as plasma kallikrein inhibitors” (Boehringer Ingelheim International GmbH, priority 2015, dated 2020).

In general, IC50 refers to the concentration at which inhibition is half-maximal.

human Plasma Kallikrein (KLKB1), sequence (P03952 391-638): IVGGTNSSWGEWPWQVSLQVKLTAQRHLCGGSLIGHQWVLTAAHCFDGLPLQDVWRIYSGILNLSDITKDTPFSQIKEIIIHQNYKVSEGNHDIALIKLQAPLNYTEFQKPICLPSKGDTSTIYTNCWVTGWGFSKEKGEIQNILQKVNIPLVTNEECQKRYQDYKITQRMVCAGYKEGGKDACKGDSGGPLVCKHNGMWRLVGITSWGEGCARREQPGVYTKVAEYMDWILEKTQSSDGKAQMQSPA
human Plasma Kallikrein (KLKB1), sequence (P03952 20-390 partner): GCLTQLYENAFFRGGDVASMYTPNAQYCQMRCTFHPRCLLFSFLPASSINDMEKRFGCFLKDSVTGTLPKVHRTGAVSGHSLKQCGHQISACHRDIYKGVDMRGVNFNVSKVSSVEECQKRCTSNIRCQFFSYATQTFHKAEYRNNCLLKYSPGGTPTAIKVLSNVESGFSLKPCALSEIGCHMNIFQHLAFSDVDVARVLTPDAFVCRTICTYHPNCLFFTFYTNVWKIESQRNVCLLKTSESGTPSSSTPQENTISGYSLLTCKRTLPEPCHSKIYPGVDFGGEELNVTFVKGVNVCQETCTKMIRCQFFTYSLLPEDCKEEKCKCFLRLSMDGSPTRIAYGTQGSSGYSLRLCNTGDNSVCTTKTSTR

For `Nc1nccc2c1CC[C@H]2NC(=O)c1cn(Cc2ccc(N3CC4CC4C3)nc2)nc1C(F)(F)F` (stereo partly drawn) [Example 77], the IC50 came to 2 nM. In the case of `Nc1ccc2c(n1)CC[C@H]2NC(=O)c1cn(Cc2ccc(N3CC4CC4C3)nc2)nc1C(F)(F)F` (stereo partly drawn) [Example 78], the IC50 was determined as 21 nM. For `Nc1nccc2c1CC[C@H]2NC(=O)c1cnn(Cc2ccc(N3CC4CCC4C3)nc2)c1` (stereo partly drawn) [Example 79] the value was 8 nM. For `Nc1nccc2c1CC[C@H]2NC(=O)c1cnn(Cc2cnc(N3CC4CC4C3)nc2)c1` (stereo partly drawn) [Example 80] the value was 3 nM; for `Nc1ccc2c(n1)CC[C@H]2NC(=O)c1cnn(Cc2cnc(N3CC4CC4C3)nc2)c1` (stereo partly drawn) [Example 81], 19 nM; for `Nc1nccc2c1CC[C@H]2NC(=O)c1cn(Cc2cnc(N3CC4CC4C3)nc2)nn1` (stereo partly drawn) [Example 82], 7 nM. For `Nc1ccc2c(n1)CC[C@H]2NC(=O)c1cn(Cc2cnc(N3CC4CC4C3)nc2)nn1` (stereo partly drawn) [Example 83] the value was 73 nM. In the case of `Nc1nccc2c1CC[C@H]2NC(=O)c1cnn(Cc2ccc(N3CC4C(C3)C4(F)F)nc2)c1` (stereo partly drawn) [Example 84], the IC50 is 1 nM. `Nc1nccc2c1CC[C@H]2NC(=O)c1cnn(Cc2cnc(N3CC4CC4C3)cn2)c1` (stereo partly drawn) [Example 85]: the IC50 stood at 4 nM. In the case of `Nc1ccc2c(n1)CC[C@H]2NC(=O)c1cnn(Cc2cnc(N3CC4CC4C3)cn2)c1` (stereo partly drawn) [Example 86], the IC50 came out at 34 nM. For `Cc1cc(N)nc2c1C(NC(=O)c1cn(Cc3ccc(N4CC5COCCN5C4=O)cc3)nn1)CC2` (stereo not drawn) [Example 87, 1-[4-(3-Oxo-tetrahydro-imidazo[5,1-c][1,4]oxazin-2-yl)-benzyl]-1H-[1,2,3]triazole-4-carboxylic acid (2-amino-4-methyl-6,7-dihydro-5H-[1]pyrindin-5-yl)-amide] the value was 3200 nM; for `Nc1nccc2c1CC[C@H]2NC(=O)c1cnn(Cc2ccc(N3CCC4(CC4)C3)nc2)c1` [Example 89], 5 nM; for `Nc1nccc2c1CC[C@H]2NC(=O)c1cnn(Cc2ccc(N3CC4(COC4)C3)nc2)c1` [Example 90], 78 nM.

Turning to `Nc1nccc2c1CC[C@H]2NC(=O)c1cnn(Cc2ccc(N3C[C@@H]4[C@@H](CO)[C@@H]4C3)nc2)c1` [Example 91], the IC50 is 38 nM. For `Nc1ccc2c(n1)CC[C@H]2NC(=O)c1cn(Cc2cnc(N3CC4CC4C3)nc2)nc1C(F)(F)F` (stereo partly drawn) [Example 92] the value was 23 nM.
